Where a name gives a salt, the structure may show the parent alone.
Target: T1, CETP (Homo sapiens, UniProt P11597)
T1 construct: The donor lipoprotein obtained above was added to plasma of healthy subject; from tissue; host or cells: whole plasma of healthy subject
T1 sequence (P11597 18-493): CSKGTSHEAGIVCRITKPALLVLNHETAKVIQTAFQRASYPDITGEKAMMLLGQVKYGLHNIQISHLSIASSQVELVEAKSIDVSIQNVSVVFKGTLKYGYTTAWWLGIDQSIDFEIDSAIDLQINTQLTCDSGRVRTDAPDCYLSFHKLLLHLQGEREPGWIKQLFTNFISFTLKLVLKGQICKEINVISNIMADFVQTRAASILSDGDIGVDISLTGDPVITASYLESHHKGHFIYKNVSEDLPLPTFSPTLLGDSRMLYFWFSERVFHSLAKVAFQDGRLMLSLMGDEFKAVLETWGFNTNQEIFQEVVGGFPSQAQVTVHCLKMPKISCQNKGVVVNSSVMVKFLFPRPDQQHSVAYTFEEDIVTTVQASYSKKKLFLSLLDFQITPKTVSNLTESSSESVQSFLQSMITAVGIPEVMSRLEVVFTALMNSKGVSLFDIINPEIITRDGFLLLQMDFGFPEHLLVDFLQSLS
Assay: Inhibitory effect in vitro on CETP activity in total plasma
Format: biochemical
Conditions: plasma of healthy subject with [3H]CE-HDL3, 37° C., 4 hr; average values
Method: Potassium bromide (KBr) was added to plasma (40 mL) of healthy subject and the mixture was adjusted to have a specific density d=1.125 g/mL. The mixture was subjected to density gradient centrifugation (227,000×g, 4° C., 17 hr) and a fraction showing a specific density of d>1.125 g/mL (HDL3 fraction) was harvested. The obtained fraction was dialyzed against PBS solution [10 mmol/L Na2HPO4; 10 mmol/L NaH2PO4; 0.15 mol/L NaCl; […] (pH 7.4)]. Then, tritium-labeled cholesterol (37 MBq) was dissolved in 95% ethanol, gradually added to the above-mentioned HDL3 fraction with stirring and incubated at 37° C. for 18 hr. [By this operation, tritium-labeled cholesterol was esterified by the action of lecithin acyl transferase (LCAT) present on the HDL3 surface and taken up into HDL3 as tritium-labeled cholesteryl ester ([^3H]CE)]. After incubation, KBr was added, the mixture was adjusted to have a specific density d=1.21 g/mL, subjected to density gradient centrifugation (227,000×g, 4° C., 17 hr) and a fraction of specific density […] was harvested. The obtained fraction was dialyzed against the aforementioned PBS solution to give HDL3 incorporating [^3H]CE ([^3H]CE-HDL3, specific density: 1.125<d<1.21, specific activity: 10,000 dpm/μL), which was used as a donor lipoprotein.
The donor lipoprotein obtained above was added to plasma of healthy subject to prepare a [^3H]CE-HDL3-containing plasma (1,000 dpm/μL). The compound was dissolved in dimethyl formamide. A solution of the compound or a solvent alone (2 μL) and the [^3H]CE-HDL3-containing plasma (100 μL) were added into a microtube, and this was incubated at 37° C. or 4° C. for 4 hr. After ice-cooling, TBS solution [100 μL, 20 mmol/L Tris; 0.15 mol/L NaCl (pH 7.4)] containing 1 mol/L magnesium chloride and 2% dextran sulfate was added to each microtube and the mixture was thoroughly stirred. After keeping at 4° C. for 30 min, the mixture was centrifuged (10,000×g, 4° C., 10 min), and the radioactivity in the obtained supernatant (HDL fraction) was measured with a scintillation counter. […] The concentration of the compound necessary for inhibiting the CETP activity by 50% was calculated as an IC50 value.

Structure (SMILES)	IC50
CCN(CCC(C)(C)CC(=O)O)c1ccc(OC(F)(F)F)cc1CN(Cc1cc(C(F)(F)F)cc(C(F)(F)F)c1)c1nnn(C)n1 [Example 104, 5-[N-(2-{[N′-[3,5-bis(trifluoromethyl)benzyl]-N′-(2-methyl-2H-tetrazol-5-yl)amino]methyl}-4-trifluoromethoxyphenyl)-N-ethylamino]-3,3-dimethylpentanoic acid hydrochloride]	350 nM
CCN(CCCCC(=O)O)c1cc2c(cc1CN(Cc1cc(C(F)(F)F)cc(C(F)(F)F)c1)c1noc(C)n1)CCC2 [Example 8, 5-{N-(6-{[N′-[3,5-bis(trifluoromethyl)benzyl]-N′-(5-methyl-[1,2,4]oxadiazol-3-yl)amino]methyl}indan-5-yl)-N-ethylamino}pentanoic acid hydrochloride]	630 nM
CCN(CCCCC(=O)O)c1cc2c(cc1CN(Cc1cc(C(F)(F)F)cc(C(F)(F)F)c1)c1ncn(C)n1)CCCC2 [Example 76, 5-[N-(3-{[N′-[3,5-bis(trifluoromethyl)benzyl]-N′-(1-methyl-1H-[1,2,4]triazol-3-yl)amino]methyl}-5,6,7,8-tetrahydronaphthalen-2-yl)-N-ethylamino]pentanoic acid hydrochloride]	290 nM
CCN(C[C@H]1CC[C@H](C(=O)O)CC1)c1cc2c(cc1CN(Cc1cc(C(F)(F)F)cc(C(F)(F)F)c1)c1nnn(CC)n1)CCC2 [Example 93, trans-4-{[N-(6-{[N′-[3,5-bis(trifluoromethyl)benzyl]-N′-(2-ethyl-2H-tetrazol-5-yl)amino]methyl}indan-5-yl)-N-ethylamino]methyl}cyclohexanecarboxylic acid hydrochloride]	760 nM
CCN(CC1CCCC1)c1cc2c(cc1CN(Cc1cc(C(F)(F)F)cc(C(F)(F)F)c1)c1noc(C)n1)CCC2 [Example 46, N-[3,5-bis(trifluoromethyl)benzyl]-N-[6-(N′-cyclopentylmethyl-N′-ethylamino)indan-5-ylmethyl]-(5-methyl-[1,2,4]oxadiazol-3-yl)amine hydrochloride]	390 nM
CCN(CCCCC(=O)OC)c1cc2c(cc1CN(Cc1cc(C#N)cc(C(F)(F)F)c1)c1ncn(C)n1)CCCC2 [Example 75, methyl 5-[N-(3-{[N′-(3-cyano-5-trifluoromethylbenzyl)-N′-(1-methyl-1H-[1,2,4]triazol-3-yl)amino]methyl}-5,6,7,8-tetrahydronaphthalen-2-yl)-N-ethylamino]pentanoate hydrochloride]	410 nM
CCN(CC1CCCC1)c1cc2c(cc1CN(Cc1cc(C(F)(F)F)cc(C(F)(F)F)c1)c1nnn(CCO)n1)CCC2 [Example 73, 2-(5-{N-[3,5-bis(trifluoromethyl)benzyl]-N-[6-(N′-cyclopentylmethyl-N′-ethylamino)indan-5-ylmethyl]amino}tetrazol-2-yl)ethanol hydrochloride]	190 nM
CCN(CCC(C)(C)CC(=O)O)c1cc2c(cc1CN(Cc1cc(C(F)(F)F)cc(C(F)(F)F)c1)c1ccn(C)n1)CCC2 [Example 102, 5-[N-(6-{[N′-[3,5-bis(trifluoromethyl)benzyl]-N′-(1-methyl-1H-pyrazol-3-yl)amino]methyl}indan-5-yl)-N-ethylamino]-3,3-dimethylpentanoic acid]	590 nM

More lines, in order of falling IC50, values ahead:

IC50	Structure (SMILES)
941 nM	CCN(CCCCC(=O)O)c1ccc(C(F)(F)F)cc1CN(Cc1cc(C(F)(F)F)cc(C(F)(F)F)c1)c1nnn(C)n1 [Example 86, 5-[N-(2-{[N′-[3,5-bis(trifluoromethyl)benzyl]-N′-(2-methyl-2H-tetrazol-5-yl)amino]methyl}-4-trifluoromethylphenyl)-N-ethylamino]pentanoic acid hydrochloride]
780 nM	CCN(C[C@H]1CC[C@H](C(=O)O)CC1)c1cc2c(cc1CN(Cc1cc(C#N)cc(C(F)(F)F)c1)c1ncn(C)n1)CCC2 [Example 60, trans-4-{[N-(6-{[N′-(3-cyano-5-trifluoromethylbenzyl)-N′-(1-methyl-1H-[1,2,4]triazol-3-yl)amino]methyl}indan-5-yl)-N-ethylamino]methyl}cyclohexanecarboxylic acid]
715 nM	CCN(CCCCC(=O)O)c1cc2c(cc1CN(Cc1cc(C(F)(F)F)cc(C(F)(F)F)c1)c1ncn(C)n1)CCC2 [Example 58, 5-[N-(6-{[N′-[3,5-bis(trifluoromethyl)benzyl]-N′-(1-methyl-1H-[1,2,4]triazol-3-yl)amino]methyl}indan-5-yl)-N-ethylamino]pentanoic acid hydrochloride]
610 nM	CCN(C[C@H]1CC[C@H](C(=O)O)CC1)c1ccc(OC(F)(F)F)cc1CN(Cc1cc(Cl)cc(Cl)c1)c1nnn(C)n1 [Example 129, trans-4-{[N-(2-{[N′-(3,5-dichlorobenzyl)-N′-(2-methyl-2H-tetrazol-5-yl)amino]methyl}-4-trifluoromethoxyphenyl)-N-ethylamino]methyl}cyclohexanecarboxylic acid hydrochloride]
550 nM	CCN(C[C@H]1CC[C@H](C(=O)OC)CC1)c1cc2c(cc1CN(Cc1cc(C#N)cc(C(F)(F)F)c1)c1ccn(C)n1)CCCC2 [Example 43, methyl trans-4-{[N-(3-{[N′-(3-cyano-5-trifluoromethylbenzyl)-N′-(1-methyl-1H-pyrazol-3-yl)amino]methyl}-5,6,7,8-tetrahydronaphthalen-2-yl)-N-ethylamino]methyl}cyclohexanecarboxylate hydrochloride]
390 nM	CCN(C[C@H]1CC[C@H](C(=O)O)CC1)c1cc2c(cc1CN(Cc1cc(C#N)cc(C(F)(F)F)c1)c1cc(C)no1)CCCC2 [Example 72, trans-4-{[N-(3-{[N′-(3-cyano-5-trifluoromethylbenzyl)-N′-(3-methylisoxazol-5-yl)amino]methyl}-5,6,7,8-tetrahydronaphthalen-2-yl)-N-ethylamino]methyl}cyclohexanecarboxylic acid hydrochloride]
240 nM	CC(C)CN(C[C@H]1CC[C@H](C(=O)O)CC1)c1ccc(OC(F)(F)F)cc1CN(Cc1cc(C(F)(F)F)cc(C(F)(F)F)c1)c1nnn(C)n1 [Example 122, trans-4-{[N-(2-{[N′-[3,5-bis(trifluoromethyl)benzyl]-N′-(2-methyl-2H-tetrazol-5-yl)amino]methyl}-4-trifluoromethoxyphenyl)-N-isobutylamino]methyl}cyclohexanecarboxylic acid hydrochloride]
140 nM	CCN(C[C@H]1CC[C@H](CC(=O)O)CC1)c1cc2c(cc1CN(Cc1cc(C(F)(F)F)cc(C(F)(F)F)c1)c1nnn(C)n1)OC(F)(F)C(F)(F)O2 [Example 137, trans-(4-{[N-(7-{[N′-[3,5-bis(trifluoromethyl)benzyl]-N′-(2-methyl-2H-tetrazol-5-yl)amino]methyl}-2,2,3,3-tetrafluoro-2,3-dihydrobenzo[1,4]dioxin-6-yl)-N-ethylamino]methyl}cyclohexyl)acetic acid hydrochloride]
80 nM	CCN(CC1CCCC1)c1cc2c(cc1CN(Cc1cc(C#N)cc(C(F)(F)F)c1)c1nnn(C)n1)CCCC2 [Example 2, 3-{[N-[3-(N′-cyclopentylmethyl-N′-ethylamino)-5,6,7,8-tetrahydronaphthalen-2-ylmethyl]-N-(2-methyl-2H-tetrazol-5-yl)amino]methyl}-5-trifluoromethylbenzonitrile]
